What was measured:
[1] = molecular target: Wee1-like protein kinase (Homo sapiens) (UniProt P30291)
[2] = molecular target: Mitogen-activated protein kinase kinase kinase kinase 2 (Homo sapiens) (UniProt Q12851)
[3] = molecular target: Homeodomain-interacting protein kinase 3 (Homo sapiens) (UniProt Q9H422)
[4] = molecular target: Phosphatidylinositol 3-kinase C2 domain-containing subunit gamma (Homo sapiens) (UniProt O75747)
[5] = molecular target: 5-hydroxytryptamine receptor 2A (Homo sapiens) (UniProt P28223); details: Compound concentration 10.0 uM
[6] = molecular target: SRSF protein kinase 3 (Homo sapiens) (UniProt Q9UPE1)
[7] = molecular target: Mitogen-activated protein kinase kinase kinase 13 (Homo sapiens) (UniProt O43283)
[8] = molecular target: Ribosomal protein S6 kinase alpha-5 (Homo sapiens) (UniProt O75582)
[9] = tested on: Hepatocyte growth factor receptor (Homo sapiens), P08581 [M1250T]
[10] = molecular target: Proto-oncogene tyrosine-protein kinase receptor Ret (Homo sapiens) (UniProt P07949)
[11] = molecular target: MAP kinase-activated protein kinase 2 (Homo sapiens) (UniProt P49137)
Sequence of MAP kinase-activated protein kinase 2 (Homo sapiens) (P49137 whole entry, looked up): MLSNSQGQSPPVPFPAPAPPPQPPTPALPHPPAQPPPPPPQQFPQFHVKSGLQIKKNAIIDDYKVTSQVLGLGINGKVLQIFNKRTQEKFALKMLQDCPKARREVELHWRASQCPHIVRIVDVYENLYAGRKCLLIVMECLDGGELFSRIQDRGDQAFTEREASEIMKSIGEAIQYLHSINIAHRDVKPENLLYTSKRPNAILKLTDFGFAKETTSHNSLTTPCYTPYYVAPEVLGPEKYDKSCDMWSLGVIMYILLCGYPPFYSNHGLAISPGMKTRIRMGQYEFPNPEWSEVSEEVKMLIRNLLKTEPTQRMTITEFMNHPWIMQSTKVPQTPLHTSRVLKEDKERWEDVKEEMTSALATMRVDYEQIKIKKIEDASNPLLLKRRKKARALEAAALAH

[12] = molecular target: Serine/threonine-protein kinase pim-2 (Homo sapiens) (UniProt Q9P1W9)
[13] = molecular target: Ephrin type-B receptor 1 (Homo sapiens) (UniProt P54762)
[14] = molecular target: Dual serine/threonine and tyrosine protein kinase (Homo sapiens) (UniProt Q6XUX3)
[15] = molecular target: Cyclin-dependent kinase 4 (Homo sapiens) (UniProt P11802)
[16] = molecular target: Cyclin-dependent kinase 2 homolog (Plasmodium falciparum (isolate 3D7)) (UniProt P61075)
[17] = molecular target: MAP kinase-interacting serine/threonine-protein kinase 2 (Homo sapiens) (UniProt Q9HBH9)
[18] = molecular target: Tyrosine-protein kinase receptor TYRO3 (Homo sapiens) (UniProt Q06418)
[19] = molecular target: Receptor tyrosine-protein kinase erbB-3 (Homo sapiens) (UniProt P21860)
[20] = molecular target: Ephrin type-B receptor 2 (Homo sapiens) (UniProt P29323)
[21] = molecular target: Serine/threonine-protein kinase 38 (Homo sapiens) (UniProt Q15208)
[22] = molecular target: G protein-coupled receptor kinase 4 (Homo sapiens) (UniProt P32298)
[23] = tested on: Mast/stem cell growth factor receptor Kit (Homo sapiens), P10721 [D816V]
[24] = molecular target: RAC-beta serine/threonine-protein kinase (Homo sapiens) (UniProt P31751)
Sequence of RAC-beta serine/threonine-protein kinase (Homo sapiens) (P31751 whole entry): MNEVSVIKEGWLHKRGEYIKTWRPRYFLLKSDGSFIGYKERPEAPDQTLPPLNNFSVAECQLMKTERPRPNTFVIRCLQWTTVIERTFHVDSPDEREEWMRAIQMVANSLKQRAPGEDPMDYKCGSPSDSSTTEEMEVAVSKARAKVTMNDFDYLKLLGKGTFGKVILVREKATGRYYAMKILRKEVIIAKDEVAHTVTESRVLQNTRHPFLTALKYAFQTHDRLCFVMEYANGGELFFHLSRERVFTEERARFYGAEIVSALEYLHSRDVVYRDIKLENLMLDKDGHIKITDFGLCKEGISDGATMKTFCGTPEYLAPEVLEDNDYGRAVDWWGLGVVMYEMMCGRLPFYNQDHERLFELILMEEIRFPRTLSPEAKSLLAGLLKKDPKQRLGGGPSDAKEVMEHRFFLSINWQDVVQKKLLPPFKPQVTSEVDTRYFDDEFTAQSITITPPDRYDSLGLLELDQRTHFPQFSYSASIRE

[25] = molecular target: Phosphatidylinositol 5-phosphate 4-kinase type-2 beta (Homo sapiens) (UniProt P78356)
[26] = molecular target: Dual specificity protein kinase CLK4 (Homo sapiens) (UniProt Q9HAZ1)
[27] = molecular target: Mast/stem cell growth factor receptor Kit (Homo sapiens) (UniProt P10721)
[28] = molecular target: Platelet-derived growth factor receptor alpha (Homo sapiens) (UniProt P16234)
Sequence of Platelet-derived growth factor receptor alpha (Homo sapiens) (P16234 whole entry): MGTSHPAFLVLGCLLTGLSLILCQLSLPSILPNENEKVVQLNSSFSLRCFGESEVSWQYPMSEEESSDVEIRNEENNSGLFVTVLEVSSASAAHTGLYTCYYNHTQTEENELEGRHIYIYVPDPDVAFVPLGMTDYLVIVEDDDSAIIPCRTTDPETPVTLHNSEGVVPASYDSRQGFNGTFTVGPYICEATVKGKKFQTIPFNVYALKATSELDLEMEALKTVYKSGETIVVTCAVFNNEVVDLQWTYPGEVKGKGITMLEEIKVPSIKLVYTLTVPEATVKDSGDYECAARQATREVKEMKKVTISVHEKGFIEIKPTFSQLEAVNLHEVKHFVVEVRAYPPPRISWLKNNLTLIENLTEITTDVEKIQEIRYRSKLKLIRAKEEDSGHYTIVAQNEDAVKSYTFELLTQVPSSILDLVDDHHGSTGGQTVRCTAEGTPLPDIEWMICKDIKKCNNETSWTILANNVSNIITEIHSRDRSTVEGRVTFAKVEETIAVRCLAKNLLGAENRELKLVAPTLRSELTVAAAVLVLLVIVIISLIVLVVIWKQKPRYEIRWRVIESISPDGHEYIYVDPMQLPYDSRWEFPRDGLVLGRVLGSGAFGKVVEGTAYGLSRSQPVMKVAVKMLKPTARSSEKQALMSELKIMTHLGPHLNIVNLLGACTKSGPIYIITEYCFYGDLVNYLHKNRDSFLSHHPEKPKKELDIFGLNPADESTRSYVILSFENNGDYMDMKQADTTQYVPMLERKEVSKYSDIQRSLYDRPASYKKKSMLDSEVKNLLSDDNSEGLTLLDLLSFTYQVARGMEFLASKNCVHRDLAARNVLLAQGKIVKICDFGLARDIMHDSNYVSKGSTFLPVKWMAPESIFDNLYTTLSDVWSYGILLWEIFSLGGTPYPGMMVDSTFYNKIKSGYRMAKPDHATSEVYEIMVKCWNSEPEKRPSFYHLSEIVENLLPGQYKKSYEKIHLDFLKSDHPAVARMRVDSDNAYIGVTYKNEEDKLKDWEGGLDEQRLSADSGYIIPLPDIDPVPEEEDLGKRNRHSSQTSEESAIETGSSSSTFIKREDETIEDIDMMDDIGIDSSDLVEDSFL

[29] = molecular target: Tyrosine-protein kinase ABL1 (Homo sapiens) (UniProt P00519)
[30] = molecular target: Dual specificity protein kinase CLK1 (Homo sapiens) (UniProt P49759)
[31] = tested on: Mast/stem cell growth factor receptor Kit (Homo sapiens), P10721 [V559D]
[32] = molecular target: Interleukin-1 receptor-associated kinase 3 (Homo sapiens) (UniProt Q9Y616)
[33] = molecular target: Dual specificity tyrosine-phosphorylation-regulated kinase 1A (Homo sapiens) (UniProt Q13627)
[34] = molecular target: Tyrosine-protein kinase Fer (Homo sapiens) (UniProt P16591)
[35] = molecular target: BDNF/NT-3 growth factors receptor (Homo sapiens) (UniProt Q16620)
[36] = molecular target: Hormonally up-regulated neu tumor-associated kinase (Homo sapiens) (UniProt P57058)
[37] = molecular target: Tyrosine-protein kinase Lck (Homo sapiens) (UniProt P06239)
[38] = molecular target: Homeodomain-interacting protein kinase 1 (Homo sapiens) (UniProt Q86Z02)
[39] = molecular target: Ephrin type-A receptor 4 (Homo sapiens) (UniProt P54764)
[40] = tested on: Mast/stem cell growth factor receptor Kit (Homo sapiens), P10721 [A829P]
Sequence of Mast/stem cell growth factor receptor Kit (Homo sapiens), P10721 [A829P] (P10721 whole entry A829P): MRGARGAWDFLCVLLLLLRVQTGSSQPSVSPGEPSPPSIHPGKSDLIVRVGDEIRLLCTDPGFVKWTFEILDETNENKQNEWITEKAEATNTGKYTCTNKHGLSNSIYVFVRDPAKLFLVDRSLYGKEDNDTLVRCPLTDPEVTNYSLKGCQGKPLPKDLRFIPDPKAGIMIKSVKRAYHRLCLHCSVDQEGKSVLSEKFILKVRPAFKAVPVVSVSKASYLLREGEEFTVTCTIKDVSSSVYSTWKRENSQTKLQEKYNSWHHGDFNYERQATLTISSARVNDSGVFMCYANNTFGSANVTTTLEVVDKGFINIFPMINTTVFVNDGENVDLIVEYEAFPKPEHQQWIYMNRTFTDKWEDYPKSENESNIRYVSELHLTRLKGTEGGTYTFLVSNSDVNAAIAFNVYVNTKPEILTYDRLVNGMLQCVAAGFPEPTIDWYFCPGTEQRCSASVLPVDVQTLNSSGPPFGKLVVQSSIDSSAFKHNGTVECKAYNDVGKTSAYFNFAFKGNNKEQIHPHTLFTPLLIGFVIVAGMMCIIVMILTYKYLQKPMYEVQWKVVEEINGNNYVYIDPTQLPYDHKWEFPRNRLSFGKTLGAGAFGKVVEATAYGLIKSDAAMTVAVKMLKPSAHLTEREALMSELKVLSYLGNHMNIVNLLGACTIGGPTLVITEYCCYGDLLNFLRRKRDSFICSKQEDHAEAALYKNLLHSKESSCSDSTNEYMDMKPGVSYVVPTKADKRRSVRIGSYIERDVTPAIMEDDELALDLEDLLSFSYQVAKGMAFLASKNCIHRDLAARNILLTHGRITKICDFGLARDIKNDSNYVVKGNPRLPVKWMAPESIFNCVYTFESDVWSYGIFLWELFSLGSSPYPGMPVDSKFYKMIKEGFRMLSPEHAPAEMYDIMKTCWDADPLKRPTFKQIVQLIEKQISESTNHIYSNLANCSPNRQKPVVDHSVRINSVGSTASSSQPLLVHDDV

[41] = molecular target: Bone morphogenetic protein receptor type-2 (Homo sapiens) (UniProt Q13873)
Sequence of Bone morphogenetic protein receptor type-2 (Homo sapiens) (Q13873 whole entry): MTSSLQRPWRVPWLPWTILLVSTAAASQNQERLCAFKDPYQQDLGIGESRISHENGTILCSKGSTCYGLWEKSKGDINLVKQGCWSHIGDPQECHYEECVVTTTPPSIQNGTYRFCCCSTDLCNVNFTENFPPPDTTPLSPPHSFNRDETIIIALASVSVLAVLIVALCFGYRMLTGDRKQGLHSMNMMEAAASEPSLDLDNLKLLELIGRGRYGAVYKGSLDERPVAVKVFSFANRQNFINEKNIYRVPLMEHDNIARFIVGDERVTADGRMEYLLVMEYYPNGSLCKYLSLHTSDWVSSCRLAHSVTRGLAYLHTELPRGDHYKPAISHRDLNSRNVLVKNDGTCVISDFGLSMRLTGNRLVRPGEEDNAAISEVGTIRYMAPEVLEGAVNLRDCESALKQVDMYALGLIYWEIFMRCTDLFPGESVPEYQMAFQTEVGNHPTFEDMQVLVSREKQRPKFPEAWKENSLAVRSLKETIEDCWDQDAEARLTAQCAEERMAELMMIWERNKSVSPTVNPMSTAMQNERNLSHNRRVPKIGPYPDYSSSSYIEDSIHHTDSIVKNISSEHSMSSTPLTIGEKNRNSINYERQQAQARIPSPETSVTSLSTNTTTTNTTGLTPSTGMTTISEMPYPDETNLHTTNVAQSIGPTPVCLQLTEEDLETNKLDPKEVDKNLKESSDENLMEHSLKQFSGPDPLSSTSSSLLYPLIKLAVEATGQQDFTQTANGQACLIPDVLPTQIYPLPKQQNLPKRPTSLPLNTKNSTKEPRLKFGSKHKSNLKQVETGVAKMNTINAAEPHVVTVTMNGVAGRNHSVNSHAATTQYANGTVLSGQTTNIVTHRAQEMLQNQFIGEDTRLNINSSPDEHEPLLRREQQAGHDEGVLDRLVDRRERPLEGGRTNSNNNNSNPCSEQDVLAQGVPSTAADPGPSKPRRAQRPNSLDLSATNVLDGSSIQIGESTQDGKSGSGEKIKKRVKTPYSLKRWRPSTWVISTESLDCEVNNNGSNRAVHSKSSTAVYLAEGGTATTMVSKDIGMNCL

[42] = molecular target: Cyclin-dependent kinase 7 (Homo sapiens) (UniProt P50613)
[43] = molecular target: Calcium/calmodulin-dependent protein kinase type 1B (Homo sapiens) (UniProt Q6P2M8)
Sequence of Calcium/calmodulin-dependent protein kinase type 1B (Homo sapiens) (Q6P2M8 whole entry): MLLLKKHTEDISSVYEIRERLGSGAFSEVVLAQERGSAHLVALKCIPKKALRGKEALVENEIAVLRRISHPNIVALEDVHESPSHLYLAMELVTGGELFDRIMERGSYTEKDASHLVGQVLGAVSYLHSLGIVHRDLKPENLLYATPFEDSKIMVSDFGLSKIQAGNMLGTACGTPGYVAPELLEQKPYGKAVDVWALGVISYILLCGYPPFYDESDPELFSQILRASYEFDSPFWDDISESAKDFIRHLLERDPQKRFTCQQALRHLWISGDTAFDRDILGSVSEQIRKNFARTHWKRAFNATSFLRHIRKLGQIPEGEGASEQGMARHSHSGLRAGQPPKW

[44] = molecular target: Serine/threonine-protein kinase 17B (Homo sapiens) (UniProt O94768)
[45] = molecular target: Serine/threonine-protein kinase WNK2 (Homo sapiens) (UniProt Q9Y3S1)
[46] = Compound concentration 1000.0 nM
[47] = Compound concentration 100.0 nM

Sequence of Wee1-like protein kinase (Homo sapiens) (P30291 whole entry, looked up): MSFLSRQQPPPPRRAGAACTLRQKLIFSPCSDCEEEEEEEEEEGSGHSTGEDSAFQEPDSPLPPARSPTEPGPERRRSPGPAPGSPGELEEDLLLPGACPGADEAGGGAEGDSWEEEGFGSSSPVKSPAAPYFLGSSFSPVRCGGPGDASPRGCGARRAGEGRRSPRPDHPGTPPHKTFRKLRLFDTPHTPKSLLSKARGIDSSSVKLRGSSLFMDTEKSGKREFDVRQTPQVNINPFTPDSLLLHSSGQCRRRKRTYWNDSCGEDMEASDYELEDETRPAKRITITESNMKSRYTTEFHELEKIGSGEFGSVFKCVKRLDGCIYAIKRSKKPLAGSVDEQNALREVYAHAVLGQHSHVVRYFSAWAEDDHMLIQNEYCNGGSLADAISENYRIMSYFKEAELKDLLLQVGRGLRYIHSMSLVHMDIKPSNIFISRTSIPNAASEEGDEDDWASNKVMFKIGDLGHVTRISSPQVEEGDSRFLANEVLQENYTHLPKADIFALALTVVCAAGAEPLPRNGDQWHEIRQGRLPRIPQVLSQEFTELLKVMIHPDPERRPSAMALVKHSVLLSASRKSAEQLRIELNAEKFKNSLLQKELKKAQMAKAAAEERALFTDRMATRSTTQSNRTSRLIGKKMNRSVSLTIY

SMILES: Cc1cc(NC(=O)c2cccc(S(F)(F)(F)(F)F)c2)cc(-n2ccn3nc(-c4cccnc4)cc23)c1 [BAY-309]
- residual activity [1, 46]: 100%
- residual activity [2, 46]: 100%
- residual activity [3, 46]: 88.8%
- residual activity [4, 46]: 100%
- inhibition [5]: 21.9%
- residual activity [6, 46]: 100%
- residual activity [7, 46]: 100%
- residual activity [8, 46]: 100%
- residual activity [9, 46]: 83.2%
- residual activity [10, 46]: 100%
- residual activity [11, 46]: 100%
- residual activity [12, 46]: 100%
- residual activity [13, 46]: 100%
- residual activity [14, 46]: 72.8%
- residual activity [15, 46]: 82.9%
- residual activity [16, 46]: 71.8%
- residual activity [17, 46]: 85.2%
- residual activity [18, 46]: 88.4%
- residual activity [19, 46]: 49.4%
- residual activity [20, 46]: 100%
- residual activity [21, 46]: 92.3%
- residual activity [22, 46]: 100%
- residual activity [23, 46]: 100%
- residual activity [24, 46]: 82.5%
- residual activity [25, 46]: 100%
- residual activity [26, 46]: 100%
- residual activity [27, 46]: 70.3%
- residual activity [28, 46]: 100%
- residual activity [29, 46]: 52.2%
- residual activity [30, 46]: 100%
- residual activity [31, 46]: 73.5%
- residual activity [32, 46]: 100%
- residual activity [33, 46]: 100%
- residual activity [34, 46]: 59.4%
- residual activity [35, 46]: 40%
- residual activity [36, 46]: 77.6%
- residual activity [37, 46]: 96.6%
- residual activity [38, 46]: 49.1%
- residual activity [39, 46]: 76%
- residual activity [40, 46]: 100%
- residual activity [41, 46]: 59.3%
- residual activity [42, 46]: 100%
- residual activity [43, 46]: 100%
- residual activity [44, 46]: 100%
- residual activity [45, 46]: 100%

SMILES: Cc1cc(C)c(-n2ccn3nc(-c4cccnc4)cc23)cc1NC(=O)c1cc(C#N)cc(S(F)(F)(F)(F)F)c1 [BAY-826]
- residual activity [1, 47]: 100%
- residual activity [2, 47]: 53.1%
- residual activity [3, 47]: 80.7%
- residual activity [4, 47]: 60.7%
- inhibition [5]: -4.7%
- residual activity [6, 47]: 100%
- residual activity [7, 47]: 97.9%
- residual activity [8, 47]: 83.2%
- residual activity [9, 47]: 100%
- residual activity [10, 47]: 82%
- residual activity [11, 47]: 100%
- residual activity [12, 47]: 100%
- residual activity [13, 47]: 100%
- residual activity [14, 47]: 71.1%
- residual activity [15, 47]: 89.4%
- residual activity [16, 47]: 90.9%
- residual activity [17, 47]: 95%
- residual activity [18, 47]: 72.4%
- residual activity [19, 47]: 96.2%
- residual activity [20, 47]: 71.4%
- residual activity [21, 47]: 80.4%
- residual activity [22, 47]: 100%
- residual activity [23, 47]: 98.8%
- residual activity [24, 47]: 88.4%
- residual activity [25, 47]: 52.2%
- residual activity [26, 47]: 93.3%
- residual activity [27, 47]: 76.8%
- residual activity [28, 47]: 67.4%
- residual activity [29, 47]: 29.2%
- residual activity [30, 47]: 96.2%
- residual activity [31, 47]: 45.6%
- residual activity [32, 47]: 75.2%
- residual activity [33, 47]: 82.8%
- residual activity [34, 47]: 100%
- residual activity [35, 47]: 54.8%
- residual activity [36, 47]: 83%
- residual activity [37, 47]: 41.6%
- residual activity [38, 47]: 61.6%
- residual activity [39, 47]: 100%
- residual activity [40, 47]: 50.9%
- residual activity [41, 47]: 89.4%
- residual activity [42, 47]: 70.1%
- residual activity [43, 47]: 83.6%
- residual activity [44, 47]: 91.4%
- residual activity [45, 47]: 100%

— ChEMBL document CHEMBL4507270 (2021)
